According to article PMC9398908, “GLP-1-mediated delivery of tesaglitazar improves obesity and glucose metabolism in male mice” (Nature Metabolism, 2022):
Several values for one entry are separate records, joined by “and”; a condition that tells them apart may be missing. Equal entries are not always repeated.

Assays:
hGLP-1R = target: T1, hGLP-1R (Homo sapiens, UniProt P43220); assay: Ligand-induced Mini-Gαs recruitment to hGLP-1R-GFP (BRET) in HEK293T cells; format: cell-based; conditions: HEK293 cells transfected with human GLP-1R; dose response, Fig. 1a; in words
T1 construct: host or cells: HEK293T, transient transfection
T1 sequence (P43220 24-463): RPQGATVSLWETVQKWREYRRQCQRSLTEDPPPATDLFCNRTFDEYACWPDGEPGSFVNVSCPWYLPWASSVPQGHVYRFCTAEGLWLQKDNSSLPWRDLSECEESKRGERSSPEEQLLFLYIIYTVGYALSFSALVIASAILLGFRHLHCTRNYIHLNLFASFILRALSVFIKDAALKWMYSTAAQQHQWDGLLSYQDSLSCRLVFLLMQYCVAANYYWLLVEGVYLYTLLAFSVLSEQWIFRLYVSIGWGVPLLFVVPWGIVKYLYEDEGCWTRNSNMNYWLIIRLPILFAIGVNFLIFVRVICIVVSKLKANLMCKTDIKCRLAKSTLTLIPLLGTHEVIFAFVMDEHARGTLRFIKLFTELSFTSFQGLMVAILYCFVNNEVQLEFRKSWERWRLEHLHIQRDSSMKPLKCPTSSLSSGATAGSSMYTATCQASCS
Procedure: HEK293T cells (700,000 per well) were seeded in six-well plates and incubated to 70% confluency in DMEM (10% FBS, 1% Pen/Strep). Twenty-four hours following seeding, transient transfections were performed using Lipofectamine 2000 (catalogue no. 11668019, Invitrogen) according to the manufacturer’s protocol without including additional transformation carrier DNA.
Twenty-four hours following transfection, HEK293T cells or MIN6 cells were washed with PBS and resuspended in FluoroBrite phenol red-free complete media (catalogue no. A1896701, Life Technologies) containing 5% FBS and 2 mM of L-glutamine (catalogue no. 25030081, Life Technologies). 100,000 cells per well were plated into poly-D-lysine-coated (catalogue no. P6403, Sigma-Aldrich) 96-well white polystyrene LumiNunc plates (catalogue no. 10072151, Thermo Fisher Scientific). After 24 h, the media was replaced with PBS (catalogue no. 10010056, Gibco) containing 10 μM of coelenterazine-h (catalogue no. S2011, Promega) or 1:500 dilution of NanoGlo (catalogue no. N1110, Promega). BRET measurements were taken every 30 s–2 min using a PHERAstar FS multi-mode microplate reader. […] The resulting ligand-specific ratiometric BRET signals were normalized to vehicle producing the ‘ligand-induced BRET ratio’[37], followed by an additional normalization step to well-specific baseline readings.

C57BL/6J DIO mice [1] = assay: Chronic high-dose treatment of DIO mice (14 days, 50 nmol/kg/day): body weight, food intake, fat and lean mass (Fig. 2a–d); format: in vivo, mouse; conditions: individual mice
Text: Glp1r^−/− mice were kindly provided by D. Drucker (University of Toronto, Canada). All wildtype and knockout mice used in our studies were in-house bred on a C57BL/6J background. […] At the beginning of each experiment, mice were equally distributed into experimental groups according to their body weight and body composition. All animal studies were approved by the State of Bavaria, Germany, or the Insitutional Animal Care and Use Committee of the University of Cincinnati, OH, USA and conducted on the basis of the underlying animal welfare law of the respective countries. Compounds were dissolved in PBS and were s.c. administered with a volume of 5 μl g^−1 body weight in the indicated doses between 15:00 and 16:00.
Fat and lean tissue mass were measured via nuclear magnetic resonance technology (EchoMRI).

C57BL/6J DIO mice [2] = assay: i.p. insulin tolerance test in DIO mice (Fig. 2g,h; Extended Data Fig. 3a,b); format: in vivo, mouse; design: unit not given here; conditions: for AOC: ITT, Suppl. Fig. 3b
Procedure: (§1) Glucose tolerance was assessed in 6 h fasted mice after i.p injection of 1.75 g glucose per kg body weight (DIO mice). Insulin tolerance was assessed in 6 h fasted mice after i.p. injection of either 0.75 U Insulin per […] body weight (DIO mice) or 1 U Insulin per […] body weight (db/db mice) (Humalog, Eli Lilly). Tail vein blood glucose was subsequently measured using a handheld glucometer (TheraSense Freestyle) at baseline and after 15, 30, 60 and 120 min.

lean C57BL/6J mice = assay: 14-day treatment of lean mice: body weight, plasma cholesterol, triglycerides, AST, ALT, heart weight (Fig. 2n–s); format: in vivo, mouse; design: Cholesterol / TAG: unit not given here
Procedure: (§2) Glp1r^−/− mice were kindly provided by D. Drucker (University of Toronto, Canada). All wildtype and knockout mice used in our studies were in-house bred on a C57BL/6J background. Mice were double-housed and kept in a constant environment with the ambient temperature set to 22 ± 2 °C with constant humidity (45–65%) and a 12 h/12 h light/dark cycle with lights off from 06:00 until 18:00. For studies in DIO mice, male C57BL/6J mice were fed with a high-fat diet comprising 58% kilocalories from fat (D12331, Research Diets). db/db mice were fed with a normal chow diet (T1314, Altromin GmbH) throughout the study. At the beginning of each experiment, mice were equally distributed into experimental groups according to their body weight and body composition. All animal studies were approved by the State of Bavaria, Germany, or the Insitutional Animal Care and Use Committee of the University of Cincinnati, OH, USA and conducted on the basis of the underlying animal welfare law of the respective countries. Compounds were dissolved in PBS and were s.c. administered with a volume of 5 μl g^−1 body weight in the indicated doses between 15:00 and 16:00.

DIO mice = assay: Acute i.p. glucose tolerance test in DIO mice 6 h after a single s.c. dose (Fig. 3); format: in vivo, mouse; design: AOC: unit not given here; conditions: for AOC: AOC of i.p. GTT, DIO mice, 6 h after single s.c. dose, individual animals
Procedure: as §2, §1

cFOS = cFOS positive neurons in hypothalamic nuclei (ARC, VMH, DMH) after a single s.c. dose (Fig. 7a,b; Extended Data Fig. 4a–c); format: in vivo, mouse
Procedure: For cFOS analysis, mice were treated s.c. with a single dose of 150 nmol kg^−1. Tissues were harvested 90 min following drug exposure. Fixed brains were coronally cryosectioned and 35-μm-thick slices were immunolabelled with the monoclonal rabbit anti-cFOS antibody (1:400, Invitrogen, no. MA5-15055) and the antirabbit Alexa546 secondary antibody (1:4,000, Invitrogen, no. A10040). According to the Allen mouse brain atlas, the ARC and the dorsomedial and ventromedial hypothalamic nuclei were captured at ×20 magnification using the Leica SP8 confocal microscope. In each region, the number of cFOS positive cells was counted in a blinded manner using Fiji/ImageJ software. For assessment of central nervous system drug appearance, mice (n = 3–4 each group) were treated with a single s.c. dose of the Cy5-labelled peptides (150 nmol kg^−1). After 90 min, tissues were harvested and processed similar to the cFOS analysis.

How did the “GLP-1R-mediated Gαs recruitment” value (hGLP-1R) turn out when `CCO[C@@H](Cc1ccc(OCCc2ccc(OS(C)(=O)=O)cc2)cc1)C(=O)O` [tesaglitazar, (S)-2-ethoxy-3-(4-(4-((methylsulfonyl)oxy)phenethoxy)phenyl) propanoic acid] was run?
The value was “had no effect”.

What about the “delta Fat mass (%)” value (C57BL/6J DIO mice [1]; Figure 2c, sheet notes an outlier based on grubbs test) of the same compound?
Its value is -21.91% and -19.00% and -17.53% and -14.42% and -13.51% and -9.80% and -21.20% and -17.11%.

What about the “delta lean mass (%)” value (C57BL/6J DIO mice [1]; Figure 2d) of the same compound?
Its value is -3.73% and -4.62% and -4.21% and -6.43% and -3.83% and -4.53% and -3.02% and -3.39%.

What about the AUC (C57BL/6J DIO mice [2]; DIO mice, Figure 2h, AUC of the insulin tolerance test, individual mice, one conjugate mouse missinjected) of the same compound?
Its AUC is 78.83 and 85.05 and 79.73 and 58.88 and 108.1 and 99.38 and 88.2 and 80.48.

What about the AOC (C57BL/6J DIO mice [2]; animal 1 of the group) of the same compound?
The AOC was 151.5.

And the AOC (C57BL/6J DIO mice [2]; animal 2 of the group)?
Its AOC is 33.

And the AOC (C57BL/6J DIO mice [2]; animal 3 of the group)?
Its AOC is 29.64.

And the AOC (C57BL/6J DIO mice [2]; animal 4 of the group)?
Its AOC is 82.26.

What about the AOC (C57BL/6J DIO mice [2]; animal 5 of the group) of the same compound?
The AOC was 109.5.

What about the AOC (C57BL/6J DIO mice [2]; animal 6 of the group) of the same compound?
The AOC was 165.

What about the AOC (C57BL/6J DIO mice [2]; animal 7 of the group) of the same compound?
Its AOC is 167.

And the AOC (C57BL/6J DIO mice [2]; animal 8 of the group)?
Its AOC is 172.

And the “Heart weight/Tibia” value (lean C57BL/6J mice; 14-day treatment, individual animals (Fig. 2s))?
Its value is 88.25 and 101.20 and 133.32 and 102.79 and 98.68 and 111.28 and 98.00 and 103.11.

What about the plasma cholesterol levels (lean C57BL/6J mice; 14 days, 50 nmol kg−1 per day, Fig. 2o, in words) of the same compound?
The plasma cholesterol levels was “reduced plasma cholesterol levels”.

What about the TAG (lean C57BL/6J mice; plasma triglycerides, 14-day treatment, individual animals (Fig. 2p)) of the same compound?
The TAG was 28.51 and 67.33 and 61.82 and 37.82 and 28.64 and 34.88 and 35.62 and 62.31.

What about the Cholesterol (lean C57BL/6J mice; plasma, 14-day treatment, individual animals (Fig. 2o)) of the same compound?
Its Cholesterol is 68.85 and 109.93 and 69.31 and 90.92 and 65.38 and 84.58 and 89.99 and 80.51.

And the ALT (lean C57BL/6J mice; plasma, 14-day treatment, individual animals (Fig. 2q), in U/L (unit assumed))?
The ALT was 7.51 and 24.40 and 11.85 and 4.07 and 8.93 and 10.70 and 5.04 and 14.23.

What about the AST (lean C57BL/6J mice; plasma, 14-day treatment, individual animals (Fig. 2r), in U/L (unit assumed)) of the same compound?
The AST was 11.14 and 10.87 and 31.82 and 15.56 and 14.94 and 16.00 and 16.09 and 19.09.

What about the AOC (DIO mice; 10 nmol/kg) of the same compound?
The AOC was 602.5 and 1138 and 938 and 739 and 687.5 and 514.5 and 579.5 and 713.5.

What about the AOC (DIO mice; 100 nmol/kg) of the same compound?
Its AOC is 808 and 562 and 500.5 and 764.5 and 734.5 and 596.5 and 539.5 and 745.5.

And the i.p. glucose tolerance (DIO mice; weight-matched DIO mice, single bolus 10 and 100 nmol kg−1, GTT 6 h after dose, Fig. 3a,b, in words)?
Its i.p. glucose tolerance is “acutely worsened i.p. glucose tolerance”.

What about the “cFOS (cFos positive neurons in the ARC)” value (cFOS; Fig. 7b, 47-week-old male DIO mice, single s.c. 150 nmol kg−1, 90 min, individual mice) of the same compound?
The value was 43 and 38 and 21 and 45.

What about the cFOS (cFOS; Suppl. Fig. 4b, animal 1 of the group) of the same compound?
The cFOS was 55.

And the cFOS (cFOS; Suppl. Fig. 4b, animal 2 of the group)?
Its cFOS is 124.

And the cFOS (cFOS; Suppl. Fig. 4b, animal 3 of the group)?
Its cFOS is 77.

And the cFOS (cFOS; Suppl. Fig. 4b, animal 4 of the group)?
The cFOS was 96.

What about the cFOS (cFOS; Suppl. Fig. 4c, animal 1 of the group) of the same compound?
Its cFOS is 13.

What about the cFOS (cFOS; Suppl. Fig. 4c, animal 2 of the group) of the same compound?
The cFOS was 9.

And the cFOS (cFOS; Suppl. Fig. 4c, animal 3 of the group)?
The cFOS was 15.

And the cFOS (cFOS; Suppl. Fig. 4c, animal 4 of the group)?
Its cFOS is 20.
